Test results taken from patent US20250221987A1, “PIPERAZINO RING-CONTAINING DERIVATIVE, PHARMACEUTICALLY ACCEPTABLE SALT THEREOF, PREPARATION METHOD THEREFOR, AND APPLICATION THEREOF” (ACERAND THERAPEUTICS (HONG KONG) LIMITED, priority 2022, published 2025).
Where two headings read alike, the source gives them in different places.

What was measured:
[1] = Pharmacokinetic study in ICR (CD-1) mice; assay type: in vivo; details: male ICR (CD-1) mice, tail vein 1 mg/kg, oral 3 mg/kg groups, plasma; for half-life: mouse, read-out: Half-life t1/2 (converted)
Protocol: ICR (CD-1) male mice, 3 mice per group. One group of mice was injected with the compound to be tested via the tail vein at a dose of 1 mg/kg. The other group of mice was administered the compound to be tested via single-dose oral administration at a dose of 3 mg/kg. In the tail vein injection group, blood was collected from the saphenous vein at 5 minutes, 15 minutes, 30 minutes, 1 hour, 2 hours, 4 hours, 8 hours, and 24 hours post-administration. In the single-dose oral administration group, blood was collected at 15 minutes, 30 minutes, 1 hour, 2 hours, 4 hours, 8 hours, and 24 hours post-administration. The collected blood was placed in an EDTA-K2 anticoagulant tube, and 30 μL of whole blood was collected at each time point. Immediately after collection, blood samples were placed on wet ice for centrifugation. Samples would be centrifuged (maintained at 4600 rpm for 5 minutes at 4° C.) within 30 minutes to obtain plasma. The plasma sample was placed into a test tube (a target of 12 to 20 μL) for analysis. […] of plasma was added with 5 μL of MeOH, then added with 200 μL of MeOH/ACN solution containing 5 ng/mL of ISTD (Terfenadine), mixed well with shaking, and centrifuged at 4000 rpm for 15 minutes. The supernatant was diluted 5-fold with MeOH/water (1:1, v/v, 0.1% FA), and loaded to LC-MS/MS for quantification of plasma concentration by analytical methods and calculation of pharmacokinetic parameters.

PARP1 = PARP1 (Homo sapiens (Human), UniProt P09874); experiment: PARP1 enzymatic activity assay; assay type: biochemical; details: for IC50: final PARP1 0.02 nM, DNA 0.8 nM, NAD+ 3.5 μM, 60 minutes; for PARP1/PARP2 inhibition Selectivity multiple N (N = IC50 (PARP2)/IC50 (PARP1)): ratio IC50 (PARP2)/IC50 (PARP1)
Protocol: 2) After the coating was completed, the coating buffer was discarded.
After washing, the blocking buffer was discarded.
4) 1000× compound was prepared. 1 μL of compound was transferred to a 96-well plate containing 199 μL of reaction buffer (50 mM Tris-HCl (pH 7.5), 0.005% Tween-20, 0.01% BSA) and mixed well.
5) 25/10×PARP1-DNA solution was prepared with reaction buffer.
6) 25/10×NAD+ solution was prepared with reaction buffer.
8) Primary antibody was 2000-fold diluted with the blocking buffer. 20 μL of primary antibody was added to the reaction plate, which was incubated at room temperature for 1.5 hours.
9) The primary antibody was discarded.
10) Secondary antibody was 2000-fold diluted with the blocking buffer.
11) The secondary antibody was discarded.
The chemiluminescence value RLU was read with Envision.

PARP2 = PARP2 (Homo sapiens (Human), UniProt Q9UGN5); experiment: PARP2 enzymatic activity assay; assay type: biochemical; details: Biotin-NAD+ 2 μM, 60 minutes
MDA-MB-436 cells = experiment: Proliferation activity assay of MDA-MB-436 cells (CellTiter-Glo); assay type: cell-based; details: 4000 cells seeded, 6 days incubation, read-out: MDA-MB-436 proliferation inhibition IC50
Protocol: Complete culture medium was prepared and mixed thoroughly. The cells were resuscitated and cultured for about two passages to select a cell line in good growth condition. The cell culture flask was removed from the incubator. Cell adherence: the culture medium was aspirated, then the cells were washed once with trypsin to discard the waste liquid, and 3 mL of fresh trypsin was added to the culture flask for digestion. When the cells were loose to be detached from the wall of the flask, 8 mL of complete culture medium was added thereto to stop trypsin digestion and mixed gently. The cell suspension was transferred to a centrifuge tube with a pipette and centrifuged at 1000 rpm for 5 minutes. The supernatant was discarded. An appropriate volume of culture medium was added to the centrifuge tube and pipetted gently to resuspend the cells evenly. The cells were counted using a Vi-Cell XR cell counter. The cell suspension was adjusted to an appropriate concentration. The cell suspension was added to a 96-well plate at 100 µL/well. The details such as cell name, seeding density, and date were labelled, and the culture plate was placed in a CO2 incubator overnight.
The compound to be tested was prepared into a 10 mM stock solution, which was aliquoted and stored in a −20° C. freezer. The compound solution was added to a 96-well plate using HPD300. The plate was incubated in a CO2 incubator for a total of 6 days.
CellTiter-Glo buffer was melted at room temperature. The lyophilized CellTiter-Glo substrate was equilibrated to room temperature. CellTiter-Glo buffer was added to the CellTiter Glo substrate and mixed thoroughly. A cell plate was taken out and equilibrated to room temperature. 100 μL of mixed CellTiter Glo reagent was added to each well, and the mixture was shaken in the dark for 10 minutes, followed by incubation for 20 minutes. The culture plate was placed into an Enspire reading plate, and the luminescence reading results were recorded. […] A pharmacodynamic inhibition rate curve was plotted by using XLFit, and the IC50 value was calculated. The 4-parameter model [fit=(A+((B−A)/(1+((C/x)^D)))] was used.

[2] = Homo sapiens, MDA-MB-436, 144 h

Chain of PARP2 (Q9UGN5 whole entry): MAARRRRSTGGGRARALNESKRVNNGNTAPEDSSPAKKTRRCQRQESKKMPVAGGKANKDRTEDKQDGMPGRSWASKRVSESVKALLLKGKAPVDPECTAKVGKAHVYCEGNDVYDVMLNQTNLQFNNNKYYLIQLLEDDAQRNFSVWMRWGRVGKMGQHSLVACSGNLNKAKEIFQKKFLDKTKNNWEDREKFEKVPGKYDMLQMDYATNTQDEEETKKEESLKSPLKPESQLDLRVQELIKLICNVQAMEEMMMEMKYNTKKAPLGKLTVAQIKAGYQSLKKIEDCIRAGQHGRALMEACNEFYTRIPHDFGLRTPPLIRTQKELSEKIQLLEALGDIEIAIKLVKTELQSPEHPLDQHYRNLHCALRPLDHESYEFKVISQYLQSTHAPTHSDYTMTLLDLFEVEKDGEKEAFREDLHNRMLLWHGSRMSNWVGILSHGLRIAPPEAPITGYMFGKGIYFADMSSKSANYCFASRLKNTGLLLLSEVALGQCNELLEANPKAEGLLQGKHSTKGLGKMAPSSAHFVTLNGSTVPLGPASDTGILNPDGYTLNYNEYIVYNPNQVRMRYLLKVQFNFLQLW
Chain of PARP1 (P09874 whole entry): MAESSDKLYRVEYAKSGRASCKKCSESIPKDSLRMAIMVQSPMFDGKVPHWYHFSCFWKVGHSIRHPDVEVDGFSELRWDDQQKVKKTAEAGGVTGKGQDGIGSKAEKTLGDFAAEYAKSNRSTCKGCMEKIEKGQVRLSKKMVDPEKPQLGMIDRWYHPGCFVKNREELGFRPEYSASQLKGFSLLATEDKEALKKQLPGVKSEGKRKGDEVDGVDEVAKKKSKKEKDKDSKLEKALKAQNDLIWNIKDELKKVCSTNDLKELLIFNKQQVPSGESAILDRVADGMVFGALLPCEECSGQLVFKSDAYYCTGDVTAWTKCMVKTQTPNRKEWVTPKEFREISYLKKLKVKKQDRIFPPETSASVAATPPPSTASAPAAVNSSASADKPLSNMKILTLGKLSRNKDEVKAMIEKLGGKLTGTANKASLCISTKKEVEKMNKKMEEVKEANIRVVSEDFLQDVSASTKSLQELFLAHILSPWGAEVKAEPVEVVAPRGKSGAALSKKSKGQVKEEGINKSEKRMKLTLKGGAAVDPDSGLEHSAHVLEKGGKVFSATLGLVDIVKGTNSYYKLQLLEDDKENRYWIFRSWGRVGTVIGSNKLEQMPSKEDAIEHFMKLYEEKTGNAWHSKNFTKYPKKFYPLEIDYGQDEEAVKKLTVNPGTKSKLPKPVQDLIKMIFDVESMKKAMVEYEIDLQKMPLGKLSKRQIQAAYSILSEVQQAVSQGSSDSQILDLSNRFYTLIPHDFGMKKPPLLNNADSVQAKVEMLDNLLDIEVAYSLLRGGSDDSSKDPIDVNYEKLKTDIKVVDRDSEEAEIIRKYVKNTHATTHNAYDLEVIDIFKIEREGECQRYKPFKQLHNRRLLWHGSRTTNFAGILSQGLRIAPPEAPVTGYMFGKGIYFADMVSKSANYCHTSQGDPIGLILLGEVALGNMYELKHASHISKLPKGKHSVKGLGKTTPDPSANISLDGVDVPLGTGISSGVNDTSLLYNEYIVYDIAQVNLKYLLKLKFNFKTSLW

Compound	Clearance [1]	half-life [1]	IC50 (PARP1)	PARP1/PARP2 inhibition Selectivity multiple N (N = IC50 (PARP2)/IC50 (PARP1)) (PARP1)	IC50 (PARP2; final PARP2 […])	Half-life t1/2 [1]	IC50 (PARP2; final PARP2 1.5 nM)	IC50 (MDA-MB-436 cells)	IC50 (MDA-MB-436 cells; [2])
CCc1cc2ncc(CN3CCN(c4ccc(C(=O)NC)nc4)CC3)cc2[nH]c1=O [AZD5305, reference compound]	10.3 mL/h/kg	8.04 h							
CCc1cc2ncc(CN3CCN(c4ccc(-c5nnc(C)[nH]5)nc4)[C@@H]4CC[C@@H]43)cc2[nH]c1=O [Example 29-2]			0.7 nM	43	30 nM			13 nM	
CNC(=O)c1ccc(N2CCN(Cc3cnc4cc(C(F)(F)F)c(=O)[nH]c4c3)[C@H]3CC[C@H]32)cn1 [Example 30-2, N-methyl-5-((1R,6S)-5-((6-oxo-7-(trifluoromethyl)-5,6-dihydro-1,5-naphthyridin-3-yl)methyl)-2,5-diazabicyclo[4.2.0]octan-2-yl)picolinamide]	1.62 mL/h/kg	47.6 h	1.2 nM	39			47 nM		1 nM

Now from value to compound, other results behind:

Clearance [1]	half-life [1]	IC50 (PARP1)	PARP1/PARP2 inhibition Selectivity multiple N (N = IC50 (PARP2)/IC50 (PARP1)) (PARP1)	IC50 (PARP2; final PARP2 […])	Half-life t1/2 [1]	IC50 (PARP2; final PARP2 1.5 nM)	Compound	IC50 (MDA-MB-436 cells)	IC50 (MDA-MB-436 cells; [2])
1.74 mL/h/kg		0.6 nM	71	46.4 nM	57.9 h		CCc1cc2ncc(CN3CCN(c4ccc(C(=O)NC)nc4)[C@@H]4CC[C@@H]43)cc2[nH]c1=O [Example 2-2, 5-((1R,6S)-5-((7-ethyl-6-carbonyl-5,6-dihydro-1,5-naphthyridin-3-yl)methyl)-2,5-diazabicyclo[4.2.0]octan-2-yl)-N-methylpyridine-2-carboxamide]	1 nM	
1.92 mL/h/kg	41.3 h	0.5 nM	120			60 nM	CNC(=O)c1ccc(N2CCN(Cc3cnc4c5c(c(=O)[nH]c4c3)CCC5)[C@H]3CC[C@H]32)cn1 [Example 12-2, N-methyl-5-[(1R,6S)-5-((6-oxo-5H,7H,8H,9H-cyclopenta[c][1,5]naphthyridin-3-yl)methyl)-2,5-diazabicyclo[4.2.0]octan-2-yl]pyridine-2-carboxamide]		2 nM
		0.3 nM	303			91 nM	CNC(=O)c1ccc(N2CCN(Cc3cnc4c5c(c(=O)[nH]c4c3)OCCC5)[C@@H]3CC[C@@H]32)cn1 [Example 31-1, N-methyl-5-((1S,6R)-5-((6-oxo-6,8,9,10-tetrahydro-5H-pyrano[2,3-c][1,5]naphthyridin-3-yl)methyl)-2,5-diazabicyclo[4.2.0]octan-2-yl)picolinamide]		3 nM
